# Source: PMC4344604, “Synthesis and Biological Evaluation of Carbocyclic Analogues of Pachastrissamine” (Marine Drugs, 2015)
# Where two headings read alike, the source gives them in different places.
# Columns and labels:
# [1] = target: T1, SphK1 (Homo sapiens, UniProt Q9NYA1); test: ADP-Glo kinase assay; format: biochemical
# T1 construct: commercial enzyme from BPS Bioscience; human given only for the docking structure 3VZB
# [2] = target: T2, SphK2 (Homo sapiens, UniProt Q9NRA0); test: ADP-Glo kinase assay; format: biochemical
# T2 construct: commercial enzyme from BPS Bioscience
# T2 sequence (Q9NRA0 1-654): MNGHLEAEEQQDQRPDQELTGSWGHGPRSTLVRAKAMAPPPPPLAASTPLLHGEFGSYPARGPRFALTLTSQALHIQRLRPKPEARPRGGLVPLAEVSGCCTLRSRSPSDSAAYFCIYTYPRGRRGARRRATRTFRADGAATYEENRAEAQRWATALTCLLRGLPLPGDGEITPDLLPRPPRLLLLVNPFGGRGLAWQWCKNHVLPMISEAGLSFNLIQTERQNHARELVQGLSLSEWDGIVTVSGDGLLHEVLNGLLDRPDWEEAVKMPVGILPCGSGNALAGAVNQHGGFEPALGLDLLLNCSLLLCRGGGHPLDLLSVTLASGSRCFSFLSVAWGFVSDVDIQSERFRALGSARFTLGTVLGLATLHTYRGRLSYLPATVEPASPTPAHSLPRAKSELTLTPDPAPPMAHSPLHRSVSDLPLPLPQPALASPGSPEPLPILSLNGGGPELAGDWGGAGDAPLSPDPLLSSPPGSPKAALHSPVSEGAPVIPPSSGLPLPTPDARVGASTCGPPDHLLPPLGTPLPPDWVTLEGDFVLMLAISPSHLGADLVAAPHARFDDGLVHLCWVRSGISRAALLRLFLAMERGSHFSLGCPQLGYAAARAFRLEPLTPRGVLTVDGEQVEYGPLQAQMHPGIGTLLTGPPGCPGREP
# Source text: ADP-Glo kinase assay on SphK2
# T1 sequence (Q9NYA1 whole entry): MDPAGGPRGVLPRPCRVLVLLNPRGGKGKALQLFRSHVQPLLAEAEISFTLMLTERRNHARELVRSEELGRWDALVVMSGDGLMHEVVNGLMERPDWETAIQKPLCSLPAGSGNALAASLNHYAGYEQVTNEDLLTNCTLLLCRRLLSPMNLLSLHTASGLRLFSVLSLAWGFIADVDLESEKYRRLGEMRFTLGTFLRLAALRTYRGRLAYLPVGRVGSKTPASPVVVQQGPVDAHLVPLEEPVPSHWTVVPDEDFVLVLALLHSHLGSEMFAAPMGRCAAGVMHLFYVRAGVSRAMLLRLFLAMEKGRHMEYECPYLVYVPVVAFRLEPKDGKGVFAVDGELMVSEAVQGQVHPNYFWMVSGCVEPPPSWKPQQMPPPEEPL
IC50 [1],IC50 [2],"IC50 ([2]; 1 µM sphingosine, 150 µM ATP, 5 mM MgCl2, pH 7.2, 1% DMSO, 1 h, room temperature)",Structure (SMILES)
58.2 µM,> 100 µM,,"CCCCCCCCCCCC[C@@H]1CC[C@H](N)[C@@H]1O [4a, (1R,2S,5R)-2-Amino-5-dodecylcyclopentan-1-ol]"
,,19.9 µM,"CCCCCCCCCCCCC/C=C/[C@@H](O)[C@H](CO)N(C)C [N,N-dimethylsphingosine]"
41.3 µM,> 100 µM,,"CCCCCCCCCCCCCCCC[C@@H]1CC[C@H](N)[C@@H]1O [4c, (1R,2S,5R)-2-Amino-5-hexadecylcyclopentan-1-ol]"
7.5 µM,20.1 µM,,"CCCCCCCCCCCCCC[C@@H]1CC[C@H](N)[C@@H]1O [4b, (1R,2S,5R)-2-Amino-5-tetradecylcyclopentan-1-ol]"
12 µM,41.8 µM,,"CCCCCCCCCCCCCC[C@@H]1OC[C@H](N)[C@@H]1O [compound 1, pachastrissamine]"
